Data from patent US20260042747A1, “KIT INHIBITORS, COMPOUNDS, PHARMACEUTICAL COMPOSITIONS, AND METHODS OF USE THEREOF” (Alivexis, Inc., priority 2022, published 2026).
Read-outs that look alike come from different tables or passages of the source.

What was measured:
[1] = biological target: recombinant human KIT tyrosine kinase protein (Homo sapiens (Human), UniProt P10721); experiment: KIT tyrosine kinase assay (ADP-Glo); assay type: biochemical
GIST-T1 cells = experiment: GIST cell proliferation assay; assay type: cell-based, human; settings: read-out: GIST-T1 IC50
From the text: Gastrointestinal stromal tumors (GIST) are the most common adult sarcomas and the majority (85-90%) of GIST cases are caused by oncogenic mutations in the receptor tyrosine kinases (RTKs), KIT or PDGFRA, which result in constitutive activation of these receptors. Human GIST-derived cell line GIST-Ti which harboring a mutation in exon 11 of KIT was used for the measurement of inhibitory potency of the compounds.
GIST-T1 cells were purchased from Cosmo Bio (Tokyo, Japan) and cultured in 10% FBS containing DMEM. The assay was performed in 96-well plates and the IC50 of each compound was determined by CellTiter Glo Assay reagent and Victor X5 Multilabel Counter. Cells were seeded at a density of 2000 cells/90 μL/well in 96-well plates. Compound dilution, cell treatment and determination of IC50 were performed as described in the assay methods of M-07e Cell Proliferation Assay.

M-07e cells = experiment: SCF-dependent M-07e cell proliferation assay; assay type: cell-based, human; settings: read-out: M-07e IC50
Experimental: SCF-dependent cell proliferation assay was developed to measure the inhibitory potency of the compounds in M-07e cells, which express wild-type human KIT protein. The assay was performed in 96-well plates and the IC50 of each KIT inhibitor was determined by CellTiter Glo Assay reagent and Victor X5 Multilabel Counter (Perkin Elmer).
M-07e cells were purchased from AcceGen Biotechnology. Cells were maintained with M-07e Growth medium: RPMI-1640 containing 20% FBS, 100 U/mL penicillin and 100 microgram/mL streptomycin, 10 ng/mL rhGM-CSF, 10 ng/mL rhSCF. M-07e cells were seeded at a density of 5000 cells/90 μL/well in 96-well plates. Test compounds were dissolved in 100% DMSO to make 20 mM stock solution and serially diluted 1:3 with 100% DMSO to make an 11-point dilution series with concen-trations from […] to 0.024 μM. The serially diluted compounds were then each diluted 1:50 with culture medium to obtain assay compound solutions containing 2% DMSO. Ten μL of assay compound solutions were added to the 90 μL of culture cell suspension in the 96-well plate, with a final DMSO concentration of 0.2%. The plates were then incubated in a 5% CO2 incubator at 37° C. for 3 days. To obtain Day Zero Controls for background calculation, cells were seeded at 5000 cells/100 μL in a new 96-well plate and processed on the same day. Both Day Zero controls and 3 day culture plates were then treated as follows. 100 μL of CellTiter Glo Assay reagent was added to each well and the plate was incubated at room temperature for 15 min on a shaker at 200-300 RPM. Then 100 μL of cell lysate samples were transferred to white wall 96-well plates and luminescence was measured by a plate reader. The luminescence of Day Zero Control was subtracted from the luminescence intensity of 3 day culture readings. The assay control for this experiment was cells treated with 0.2% DMSO in culture medium and wells with 100 μL of culture medium (0.2% DMSO without cells) were used as the blank for data analysis.
The IC50 value of each compound was determined by using % inhibition by nor-malizing inhibition in DMSO treated control wells to 0% using the following formula method: […]
Plot percent inhibition in proliferation of triplicates against the respective concen-trations of compound and fit the dose response curve using the sigmoidal dose response equation to generate the IC50 in GraphPad Prism 8 software.

[2] = Homo sapiens, GISTT1, 72 h, GIST-T1 cells (mutation in exon 11 of KIT), CellTiter Glo, 3 days
[3] = Homo sapiens, M-07e, 72 h, SCF-dependent M-07e cell proliferation, 3 days, CellTiter Glo

recombinant human KIT tyrosine kinase protein, sequence (P10721 546-976): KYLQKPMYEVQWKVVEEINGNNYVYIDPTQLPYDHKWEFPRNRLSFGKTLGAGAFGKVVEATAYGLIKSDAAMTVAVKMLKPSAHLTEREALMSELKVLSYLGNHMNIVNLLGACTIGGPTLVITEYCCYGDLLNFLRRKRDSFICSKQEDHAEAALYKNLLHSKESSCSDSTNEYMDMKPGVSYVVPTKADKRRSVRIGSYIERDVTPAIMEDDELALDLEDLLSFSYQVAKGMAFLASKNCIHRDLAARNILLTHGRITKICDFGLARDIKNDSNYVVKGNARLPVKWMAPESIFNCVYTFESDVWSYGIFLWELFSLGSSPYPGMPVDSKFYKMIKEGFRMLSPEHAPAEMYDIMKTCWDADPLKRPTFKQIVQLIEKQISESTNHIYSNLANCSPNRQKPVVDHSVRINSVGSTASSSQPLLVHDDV

SMILES	IC50 ([1]; Table 99) [µM]	IC50 (M-07e cells; [3]) [µM]	IC50 (M-07e cells; Homo sapiens, M-07e, 72 h) [µM]	other results
Cn1c(=O)[nH]c2cc(C(=O)NCc3ccc(Oc4ccccc4F)nc3)ccc21 [Compound 1, N-((6-(2-Fluorophenoxy)pyridin-3-yl)methyl)-1-methyl-2-oxo-2,3-dihydro-1H-benzimid azole-5-carboxamide]	–	–	–	IC50 ([1]; Table 98): 0.057 µM; IC50 (GIST-T1 cells; [2]): 0.057 µM
CC(C)n1c(=O)[nH]c2cc(C(=O)NCc3ccc(Oc4ccc(F)cc4)nc3)ccc21 [Compound 2, N-((6-(4-Fluorophenoxy)pyridin-3-yl)methyl)-1-isopropyl-2-oxo-2,3-dihydro-1H-benzim idazole-5-carboxamide]	–	–	–	IC50 ([1]; Table 98): 0.45 µM; IC50 (GIST-T1 cells; [2]): 0.45 µM
O=C(NCc1ccc(C(F)(F)F)nc1)c1ccc2[nH]c(=O)[nH]c2c1 [Example 28]	–	–	–	IC50 ([1]; Table 98): 3.6 µM; IC50 (GIST-T1 cells; [2]): 3.6 µM
O=C(NCc1ccc(Oc2ccc(F)cc2)nc1)c1ccc2[nH]c(=O)[nH]c2c1 [Example 29]	–	–	–	IC50 ([1]; Table 98): 0.056 µM; IC50 (GIST-T1 cells; [2]): 0.056 µM
O=C(NCc1ccc(Oc2cccc(F)c2)nc1)c1ccc2[nH]c(=O)[nH]c2c1 [Example 30]	–	–	–	IC50 ([1]; Table 98): 0.067 µM; IC50 (GIST-T1 cells; Homo sapiens, GISTT1, 72 h): 0.067 µM
O=C(NCc1ccc(Oc2ccc(Cl)cc2)nc1)c1ccc2[nH]c(=O)[nH]c2c1 [Example 31]	–	–	–	IC50 ([1]; Table 98): 0.07 µM; IC50 (GIST-T1 cells; Homo sapiens, GISTT1, 72 h): 0.07 µM
O=C(NCc1ccc(Oc2ccccc2F)nc1)c1ccc2[nH]c(=O)[nH]c2c1 [Example 32]	–	–	–	IC50 ([1]; Table 98): 0.029 µM; IC50 (GIST-T1 cells; [2]): 0.029 µM
Cn1c(=O)[nH]c2cc(C(=O)NCc3ccc(Oc4cccc(F)c4)nc3)ccc21 [Example 33]	–	–	–	IC50 ([1]; Table 98): 0.078 µM; IC50 (GIST-T1 cells; [2]): 0.078 µM
CCn1c(=O)[nH]c2cc(C(=O)NCc3ccc(Oc4ccc(F)cc4)nc3)ccc21 [Example 35]	–	–	–	IC50 ([1]; Table 98): 0.083 µM; IC50 (GIST-T1 cells; Homo sapiens, GISTT1, 72 h): 0.083 µM
CN(c1ccc(CNC(=O)c2ccc3c(c2)[nH]c(=O)n3C)cn1)[C@H]1CC[C@@H](F)C1 [Example 110, N-((6-(((1S,3R)-3-Fluorocyclopentyl)(methyl)amino)pyridin-3-yl)methyl)-1-methyl-2-ox o-2,3-dihydro-1H-benzimidazole-5-carboxamide]	0.033	0.055	–	–
CN(c1ccc(CNC(=O)c2cc3[nH]c(=O)n(C)c3cc2F)cn1)C1CCC(F)(F)CC1 [Example 115, N-((6-((4,4-Difluorocyclohexyl)(methyl)amino)pyridin-3-yl)methyl)-6-fluoro-1-methyl-2-oxo-2,3-dihydro-1H-benzimidazole-5-carboxamide]	0.021	0.07	–	–
CN(c1ccc2c(c1)COC2)c1ccc(CNC(=O)c2ccc3c(c2)[nH]c(=O)n3C)cn1 [Example 119]	0.04	–	0.423	–
CN(c1ccc(CNC(=O)c2ccc3c(c2)[nH]c(=O)n3C)cn1)C1Cc2ccccc2C1 [Example 120]	0.045	–	0.206	–
CN(c1ccc(CNC(=O)c2ccc3c(c2)[nH]c(=O)n3C)cn1)C1CC2(COC2)C1 [Example 121]	0.059	–	1.35	–
CN(c1ccc(CNC(=O)c2ccc3c(c2)[nH]c(=O)n3C)cn1)[C@@H]1CCC(F)(F)C1 [Example 122]	0.032	–	0.014	–
CN(c1ccc(CNC(=O)c2ccc3c(c2)[nH]c(=O)n3C)cn1)C1CC2(C1)CC2(F)F (stereo not shown) [Example 125]	0.031	–	0.151	–
CN(c1ccc(CNC(=O)c2ccc3c(c2)[nH]c(=O)n3C)cn1)C1[C@H]2CC(F)(F)C[C@@H]12 (stereo partly shown) [Example 126]	0.033	–	0.806	–
CN(c1ccc(CNC(=O)c2ccc3c(c2)[nH]c(=O)n3C)cn1)[C@H]1C[C@@H]1C(F)(F)F [Example 127]	0.047	–	1.32	–

SMILES	IC50 ([1]; Table 99) [µM]	IC50 (M-07e cells; [3]) [µM]	IC50 (M-07e cells; Homo sapiens, M-07e, 72 h) [µM]	other results
CC(C)N(C)c1ccc(CNC(=O)c2ccc3[nH]c(=O)[nH]c3c2)cn1 [Example 129]	0.02	1.02	–	–
CC(NC(=O)c1ccc2c(c1)[nH]c(=O)n2C)c1ccc(N(C)C(C)C)nc1 (stereo not shown) [Example 130]	0.222	1.85	–	–
CN(c1ccc(CNC(=O)c2ccc3c(c2)[nH]c(=O)n3C)cn1)[C@@H]1CC[C@H](F)C1 [Example 134]	0.038	–	0.062	–
CN(c1ccc(CNC(=O)c2cc3[nH]c(=O)[nH]c3cc2F)cn1)C1CCC(F)(F)CC1 [Example 135]	0.03	0.589	–	–
CC(C)N(C)c1ccc(CNC(=O)c2cc3[nH]c(=O)[nH]c3cc2F)cn1 [Example 136]	0.027	0.209	–	–
CN(c1ccc(CNC(=O)c2cc3[nH]c(=O)[nH]c3cc2F)cn1)[C@H]1C[C@@H](C(F)(F)F)C1 [Example 137]	0.023	0.036	–	–
CN(c1cnc(CNC(=O)c2cc3[nH]c(=O)[nH]c3cc2F)cn1)C1CCC(F)(F)C1 (stereo not shown) [Example 138]	0.035	–	4.57	–
CN(c1ccc(CNC(=O)c2cc3[nH]c(=O)n(C)c3cc2F)cn1)C1CC(F)(F)C1 [Example 139]	0.075	0.636	–	–
CN(c1ccc(CNC(=O)c2cc3[nH]c(=O)[nH]c3cc2F)cn1)C1CCC(F)(F)C1 (stereo not shown) [Example 140]	0.018	0.099	–	–
CN(c1ccc(CNC(=O)c2cc(F)c3[nH]c(=O)[nH]c3c2)cn1)[C@H]1C[C@@H](C(F)(F)F)C1 [Example 142]	0.018	–	0.278	–
CN(c1ccc(CNC(=O)c2cc(F)c3[nH]c(=O)[nH]c3c2)cn1)C1CCC(F)(F)CC1 [Example 143]	0.035	1.46	–	–
CN(c1ccc(CNC(=O)c2cc(F)c3[nH]c(=O)[nH]c3c2)cn1)C1CC(F)(F)C1 [Example 144]	0.057	3.56	–	–
COc1cc(C(=O)NCc2ccc(N(C)[C@H]3C[C@@H](C(F)(F)F)C3)nc2)cc2[nH]c(=O)[nH]c12 [Example 145]	0.015	–	0.515	–
CN(c1ccc(CNC(=O)c2cc3[nH]c(=O)[nH]c3c(F)c2F)cn1)C1CCC(F)(F)C1 (stereo not shown) [Example 146]	0.03	0.621	–	–
CN(c1ccc(CNC(=O)c2ccc3c([nH]c(=O)n3C)c2F)cn1)C1CCC(F)(F)C1 (stereo not shown) [Example 147]	0.023	0.44	–	–
Cn1c(=O)[nH]c2cc(C(=O)NCc3ccc(Oc4ccc(Cl)cc4)nc3)ccc21 [compound 34]	–	–	–	IC50 ([1]; Table 98): 0.058 µM; IC50 (GIST-T1 cells; GIST-T1 cells (mutation in exon 11 of KIT), CellTiter Glo, 3 days): 0.058 µM
CN(c1ccc(CNC(=O)c2cc(Cl)c3[nH]c(=O)[nH]c3c2)cn1)[C@H]1C[C@@H](C(F)(F)F)C1 [compound 141]	0.027	–	–	IC50 (M-07e cells; SCF-dependent M-07e cell proliferation, 3 days, CellTiter Glo): 0.153 µM
